Measured values as given in publication PMC6277577, “In Salmonella enterica, OatA (Formerly YjgM) Uses O-Acetyl-Serine and Acetyl-CoA to Synthesize N,O-Diacetylserine, Which Upregulates Cysteine Biosynthesis” (Frontiers in Microbiology, 2018).

T1: OatA (formerly YjgM) (Salmonella enterica, UniProt Q08021)
T1 sequence (Q08021 1-167): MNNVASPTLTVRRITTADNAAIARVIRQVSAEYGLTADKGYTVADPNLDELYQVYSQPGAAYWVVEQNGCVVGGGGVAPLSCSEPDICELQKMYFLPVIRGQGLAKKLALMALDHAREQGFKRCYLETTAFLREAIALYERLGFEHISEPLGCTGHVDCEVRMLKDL

B1: OatA (formerly YjgM) (Salmonella enterica subsp. enterica serovar Typhimurium str. LT2) (protein)
chain: T1 sequence (Q08021 1-167)

Tests used:
OatA (formerly YjgM) = target: T1, OatA (formerly YjgM); experiment: isothermal titration calorimetry with purified OatA; format: binding
purified protein = substrate: CC(=O)OC[C@H](N)C(=O)O; experiment: purified protein; format: biochemical, Salmonella enterica; conditions: acetyl-CoA positively cooperative (h = […]); no OAS binding seen by ITC under conditions tested, suggesting AcCoA binds before OAS

| Molecule | Kd (OatA (formerly YjgM)) | Km (purified protein) |
| --- | --- | --- |
| CC(=O)SCCNC(=O)CCNC(=O)[C@H](O)C(C)(C)COP(=O)(O)OP(=O)(O)OC[C@H]1O[C@@H](n2cnc3c(N)ncnc32)[C@H](O)[C@@H]1OP(=O)(O)O [acetyl-CoA] | ~22 µM |  |
| B1 |  | 740 µM |
